The target of assay [1] is T1, human CB2 receptor (Homo sapiens, UniProt P34972).
T1 construct: expressed in transfected cells; host or cells: human embryonic kidney (HEK) cells, Semliki Forest Virus system, membrane preparations
In words: CB2 receptor affinity, [3H]-CP-55,940 displacement, HEK cell membranes. Format: binding. Conditions: 10 μM compound, radioligand [3H]-CP-55,940. The method in brief:
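Membranes from HEK cells transiently expressing human CB2 (Semliki Forest Virus) incubated with [3H]-CP-55,940 ± compound at 10 μM. Bound ligand separated by glass-fibre filtration and counted by scintillation; reported as % inhibition at 10 μM.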

Assay [2] has as its target T2, human CB1 receptor (Homo sapiens, UniProt P21554).
T2 construct: expressed in transfected cells; host or cells: human embryonic kidney (HEK) cells, Semliki Forest Virus system, membrane preparations
The assay is described as follows: CB1 receptor affinity, [3H]-CP-55,940 displacement, HEK cell membranes. It counts as binding. Particulars: read-out: CB1 receptor affinity [% inhibition @ 10 μM]. The method, boiled down:
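Membranes from HEK cells transiently expressing human CB1 (Semliki Forest Virus system) incubated with [3H]-CP-55,940 with or without test compound. Bound and free ligand separated by glass-fibre filtration and bound radioactivity counted by scintillation. Compounds tested at 10 μM, values reported as % inhibition of radioligand binding.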

In assay [3] the test system is ABCA1 protein. In words: Detection of upregulation of ABCA1 protein in THP-1 macrophage cells (ApoA-I binding, high content imaging). Format: cell-based. Conditions: 24 hrs with compound, AlexaFluor 647 ApoA-I binding, read-out: ABCA1 protein increasing efficacy EC50. As for the experimental part:
The ability of compounds of the invention to increase the level of ABCA1 protein is determined in replicate cultures of THP-1 macrophage cells in 96-well microplates. Cells are plated at an initial density of 100,000 cells/well in 100 μl medium and differentiated to adherent macrophages with the addition of PMA (100 nM) for 68 hrs in 10% fetal bovine serum, 3 μl/L of b-mercaptoethanol, RPMI-1640 medium. Then, cells are incubated with RPMI-1640 medium containing 1% FCS, 25 μg/ml acetylated LDL, for 24 hours at 37°. Following incubation with acetylated LDL, cells are washed twice with 50 μl PBS and incubated with 100 μl of RPMI-1640 medium containing the compound of interest solubilized in DMSO for an additional 24 hrs. The final DMSO concentration in presence of cells is maintained at 0.5%. ApoA-I binding assay using High Content Image Analysis is initiated by replacing with fresh medium, RPMI without Phenol Red, 0.2% BSA containing AlexaFluor®647 labeled ApoA-I for 2 h/37° C./5% CO2. Then, cells are fixed with 4% Formaldehyde in PBS (15 min, RT). Following Nuclei are stained with Hoechst solution (3 μM PBS) and Cytoplasm with Cell Mask Blue (2 μg/ml PBS), 15 min, RT. Finally the stained cells are fixed with a second round of formaldehyde treatment. Fixed stained cells are washed and kept in PBS at 4° C. and can be read immediately until one month after preparation.
The Alexa Fluor 647-labeled Apolipoprotein A-I (20 nM) was prepared as follows: Human recombinant Apolipoprotein A-I (ApoA-I) was exchanged to a buffer of 0.02 M NaHCO3 at pH 8.2 on an NAP desalting column (GE Healthcare) and brought to a concentration to 40 μM (1.13 mg/ml) by adjustment with the same buffer. The ApoA-I was fluorescently labeled by incubation with Alexa Fluor carboxylic acid succimidyl ester. (Alexa Fluor 647, Invitrogen A-20006) at a 2:1 molar ratio (Alexa to ApoA-I) for 1 h under shaking at RT. The remaining unconjugated label was removed by buffer exchange to 0.02M NaHCO3 at pH 8.2.
Imaging and data collection were performed on an OPERA confocal microplate imaging reader using a 20× water immersion objective and UV360 or 405 laser to identify the cell nuclei and a 635 laser to identify the fluorescent ApoA-I. Eight fields of view are captured per well. Image capture and analysis was performed with the Acapella software. Background fluorescence detected in control wells without ApoA-I was subtracted.
Using XLfit3 program (ID Business Solutions Ltd. UK), the model 205 for Dose Response One Site is used to calculate the EC50 values. […] Preferably, the compounds of the present invention have EC50 values in a range of 0.1 μM to 3 μM.

The mark [4] stands for this setting: 10 μM compound, radioligand [3H]-CP-55,940.

Read-outs that look alike come from different tables or passages of the source.

As a reminder, the inhibition is the relative decrease from the control value, in per cent. As usually defined, the EC50 is the concentration at which the effect is half-maximal.

T1 sequence (P34972 whole entry): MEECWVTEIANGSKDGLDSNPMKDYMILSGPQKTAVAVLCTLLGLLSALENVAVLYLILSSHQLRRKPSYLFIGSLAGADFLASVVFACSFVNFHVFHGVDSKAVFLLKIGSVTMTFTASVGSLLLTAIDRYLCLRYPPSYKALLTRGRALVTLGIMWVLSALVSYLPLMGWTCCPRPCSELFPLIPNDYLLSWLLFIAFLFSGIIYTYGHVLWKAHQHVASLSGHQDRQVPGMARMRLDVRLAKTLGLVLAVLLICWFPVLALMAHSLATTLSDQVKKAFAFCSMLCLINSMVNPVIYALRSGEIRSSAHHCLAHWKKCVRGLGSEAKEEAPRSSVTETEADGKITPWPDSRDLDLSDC
T2 sequence (P21554 whole entry): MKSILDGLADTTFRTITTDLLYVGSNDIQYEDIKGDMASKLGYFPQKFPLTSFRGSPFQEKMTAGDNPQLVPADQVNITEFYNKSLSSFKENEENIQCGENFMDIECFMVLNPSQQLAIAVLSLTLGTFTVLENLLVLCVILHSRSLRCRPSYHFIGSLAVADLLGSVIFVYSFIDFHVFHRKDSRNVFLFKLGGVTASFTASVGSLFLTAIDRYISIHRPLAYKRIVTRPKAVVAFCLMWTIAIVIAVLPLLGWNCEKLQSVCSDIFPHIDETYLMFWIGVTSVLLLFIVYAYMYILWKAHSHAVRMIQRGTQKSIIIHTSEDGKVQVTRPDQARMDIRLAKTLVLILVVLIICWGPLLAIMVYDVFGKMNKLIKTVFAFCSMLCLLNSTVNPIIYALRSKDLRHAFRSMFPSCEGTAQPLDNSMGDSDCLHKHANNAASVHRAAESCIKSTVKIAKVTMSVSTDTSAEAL

As for `CC(C)c1cc(CNC(=O)c2ncc(OCC(F)(F)F)c(-c3ccc(Cl)cc3)n2)on1` [Example 44, 4-(4-chloro-phenyl)-5-(2,2,2-trifluoro-ethoxy)-pyrimidine-2-carboxylic acid (3-isopropyl-isoxazol-5-ylmethyl)-amide], the inhibition at 10 µM was 8% in assay [1] and 29% in assay [2] (setting [4]). Besides, the EC50 in assay [3] was 1020 nM.

Turning to `O=C(NCc1nc(C(F)(F)F)no1)c1cc(-c2ccc(Cl)cc2)c(OCC(F)(F)F)nn1` [Example 46, 5-(4-chloro-phenyl)-6-(2,2,2-trifluoro-ethoxy)-pyridazine-3-carboxylic acid (3-trifluoromethyl-[1,2,4]oxadiazol-5-ylmethyl)-amide], the inhibition at 10 µM in assay [1] was determined as 0%; in assay [2] (setting [4]), 30%. Besides, the half-maximal effective concentration (EC50) in assay [3] was 780 nM.

`O=C(NCc1nc(C2CC2)no1)c1cc(-c2ccc(Cl)cc2)c(OCC(F)(F)F)nn1` [Example 48, 5-(4-chloro-phenyl)-6-(2,2,2-trifluoro-ethoxy)-pyridazine-3-carboxylic acid (3-cyclopropyl-[1,2,4]oxadiazol-5-ylmethyl)-amide]: the values for the inhibition at 10 µM in assay [1] and in assay [2] (setting [4]) were 19% and 35%, respectively. The EC50 in assay [3] turned out to be 730 nM.

For the compound `O=C(NCc1cc(C(F)(F)F)no1)c1cc(-c2ccc(Cl)cc2)c(OCC(F)(F)F)nn1` [Example 60, 5-(4-chloro-phenyl)-6-(2,2,2-trifluoro-ethoxy)-pyridazine-3-carboxylic acid (3-trifluoromethyl-isoxazol-5-ylmethyl)-amide], the inhibition at 10 µM in assay [1] was -3%; in assay [2] (setting [4]), 30%. In addition, the EC50 in assay [3] stood at 750 nM.

Regarding `O=C(NCc1cc(C(F)(F)F)no1)c1ncc(OCC(F)(F)F)c(-c2ccc(Cl)cc2)n1` [Example 61, 4-(4-chloro-phenyl)-5-(2,2,2-trifluoro-ethoxy)-pyrimidine-2-carboxylic acid (3-trifluoromethyl-isoxazol-5-ylmethyl)-amide], the values for the inhibition at 10 µM in assay [1] and in assay [2] (setting [4]) were 17% and 32%, respectively. The EC50 in assay [3] turned out to be 820 nM.

For the compound `CC(C)c1cc(CNC(=O)c2ccc(OCC(F)(F)F)c(-c3ccc(Cl)cc3)n2)on1` [Example 64, 6-(4-chloro-phenyl)-5-(2,2,2-trifluoro-ethoxy)-pyridine-2-carboxylic acid (3-isopropyl-isoxazol-5-ylmethyl)-amide], the figures for the inhibition at 10 µM in assay [1] and in assay [2] (setting [4]) were 7% and 33%, respectively. Besides, the EC50 in assay [3] came out at 860 nM.

For the compound `O=C(NCc1cc(C(F)(F)F)on1)c1cc(-c2ccc(Cl)cc2)c(OCC(F)(F)F)nn1` [Example 67, 5-(4-chloro-phenyl)-6-(2,2,2-trifluoro-ethoxy)-pyridazine-3-carboxylic acid (5-trifluoromethyl-isoxazol-3-ylmethyl)-amide], the inhibition at 10 µM in assay [1] turned out to be 3%; in assay [2] (setting [4]), 25%. The EC50 in assay [3] was found to be 780 nM.

Take `O=C(NCc1coc(C2CC2)n1)c1cc(-c2ccc(Cl)cc2)c(OCC(F)(F)F)cn1` [Example 70, 4-(4-chlorophenyl)-N-((2-cyclopropyloxazol-4-yl)methyl)-5-(2,2,2-trifluoroethoxy)picolinamide]: the values for the inhibition at 10 µM in assay [1] and in assay [2] (setting [4]) were 14% and 28%, respectively. In assay [3], the EC50 worked out at 1560 nM.

On to `Cc1cc(-c2cc(C(=O)NCc3csc(C4CC4)n3)cnc2OCC(F)(F)F)ccc1Cl` [Example 71, 5-(4-chloro-3-methylphenyl)-N-((2-cyclopropylthiazol-4-yl)methyl)-6-(2,2,2-trifluoroethoxy)nicotinamide], for which the inhibition at 10 µM in assay [1] is -7%; in assay [2] (setting [4]), 2%. In addition, the concentration giving a half-maximal response (EC50) in assay [3] turned out to be 4290 nM.

Regarding `Cc1cc(-c2cc(C(=O)NCc3nc(C(F)(F)F)no3)cnc2OCC(F)(F)F)ccc1Cl` [Example 72, 5-(4-chloro-3-methylphenyl)-6-(2,2,2-trifluoroethoxy)-N-((3-(trifluoromethyl)-1,2,4-oxadiazol-5-yl)methyl)nicotinamide], the inhibition at 10 µM was -1% in assay [1] and 34% in assay [2] (setting [4]). Moreover, the concentration giving a half-maximal response (EC50) in assay [3] was 500 nM.

With `COc1cc(CNC(=O)c2cc(-c3ccc(Cl)c(C)c3)c(OCC(F)(F)F)cn2)on1` [Example 74, 4-(4-chloro-3-methylphenyl)-N-((3-methoxyisoxazol-5-yl)methyl)-5-(2,2,2-trifluoroethoxy)picolinamide], the inhibition at 10 µM came out at 22% in assay [1] and 11% in assay [2]. Besides, the EC50 in assay [3] amounted to 1300 nM.

As for `Cc1cc(-c2cc(C(=O)NCc3csc(C4CC4)n3)ncc2OCC(F)(F)F)ccc1Cl` [Example 76, 4-(4-chloro-3-methylphenyl)-N-((2-cyclopropylthiazol-4-yl)methyl)-5-(2,2,2-trifluoroethoxy)picolinamide], the inhibition at 10 µM in assay [1] came out at 9%; in assay [2] (setting [4]), 8%. The EC50 in assay [3] was 1640 nM.

Take `Cc1ccc(-c2cc(C(=O)NCc3nc(C(F)(F)F)no3)cnc2OCC(F)(F)F)cc1` [Example 79, 5-p-tolyl-6-(2,2,2-trifluoroethoxy)-N-((3-(trifluoromethyl)-1,2,4-oxadiazol-5-yl)methyl)nicotinamide]: the figures for the inhibition at 10 µM in assay [1] and in assay [2] (setting [4]) were 4% and 42%, respectively. In assay [3], the EC50 is 1170 nM.

Consider `Cc1ccc(-c2cc(C(=O)NCc3nc(C(F)(F)F)no3)cnc2OCC(F)(F)F)cc1Cl` [Example 80, 5-(3-chloro-4-methylphenyl)-6-(2,2,2-trifluoroethoxy)-N-((3-(trifluoromethyl)-1,2,4-oxadiazol-5-yl)methyl)nicotinamide], for which the results for the inhibition at 10 µM in assay [1] and in assay [2] (setting [4]) were -4% and 15%, respectively. The EC50 in assay [3] was 3130 nM.

As to `O=C(NCc1nc(C(F)(F)F)no1)c1cnc(OCC(F)(F)F)c(-c2ccc(F)c(Cl)c2)c1` [Example 81, 5-(3-chloro-4-fluorophenyl)-6-(2,2,2-trifluoroethoxy)-N-((3-(trifluoromethyl)-1,2,4-oxadiazol-5-yl)methyl)nicotinamide], the inhibition at 10 µM in assay [1] is 7%; in assay [2] (setting [4]) it was 4%. The EC50 in assay [3] came to 890 nM.

Turning to `O=C(NCc1nc(C(F)(F)F)no1)c1cnc(OCC(F)(F)F)c(-c2ccc(F)c(F)c2)c1` [Example 89, 5-(3,4-difluorophenyl)-6-(2,2,2-trifluoroethoxy)-N-((3-(trifluoromethyl)-1,2,4-oxadiazol-5-yl)methyl)nicotinamide], the figures for the inhibition at 10 µM in assay [1] and in assay [2] (setting [4]) were 4% and 28%, respectively. Further, the concentration for a half-maximal effect (EC50) in assay [3] was 1960 nM.

Consider `O=C(NCc1nc(C(F)(F)F)no1)c1cnc(OC2CCC2)c(-c2ccc(F)c(F)c2)c1` [Example 91, 6-cyclobutoxy-5-(3,4-difluorophenyl)-N-((3-(trifluoromethyl)-1,2,4-oxadiazol-5-yl)methyl)nicotinamide], for which the inhibition at 10 µM was 12% in assay [1] and 23% in assay [2] (setting [4]). In assay [3], the EC50 came out at 620 nM.

In the case of `Cc1cc(-c2cc(C(=O)NCc3nc(C(F)(F)F)no3)cnc2OC2CCC2)ccc1Cl` [Example 94, 5-(4-chloro-3-methylphenyl)-6-cyclobutoxy-N-((3-(trifluoromethyl)-1,2,4-oxadiazol-5-yl)methyl)nicotinamide], the inhibition at 10 µM in assay [1] stood at 2%; in assay [2] (setting [4]) it was 19%. The half-maximal effective concentration (EC50) in assay [3] was 310 nM.

For the origin of these results see US9090599B2, “Heteroarylmethyl amides” (Hoffman-La Roche Inc., priority 2010, dated 2015).
